Where only a bound is given, the exact number is not on record here.

For one test, the target named is T1, cloned human CCR8 receptor stably expressed in L1.2 cells (Homo sapiens, UniProt P51685).
T1 construct: expressed in transfected cells
T1 sequence (P51685 whole entry): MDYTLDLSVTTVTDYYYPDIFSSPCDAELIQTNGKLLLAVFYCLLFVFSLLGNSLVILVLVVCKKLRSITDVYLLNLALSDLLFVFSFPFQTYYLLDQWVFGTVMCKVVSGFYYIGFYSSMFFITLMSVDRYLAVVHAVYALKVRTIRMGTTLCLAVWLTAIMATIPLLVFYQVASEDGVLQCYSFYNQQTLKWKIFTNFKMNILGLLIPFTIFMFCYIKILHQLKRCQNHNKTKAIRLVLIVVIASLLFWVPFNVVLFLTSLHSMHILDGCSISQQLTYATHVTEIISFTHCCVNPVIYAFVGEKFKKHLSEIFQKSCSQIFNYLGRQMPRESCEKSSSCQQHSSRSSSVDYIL
In words: whole cell binding screen: inhibition of biotinylated human I309 binding to CCR8 (FMAT 8100 HTS). Particulars: Ki of compounds to inhibit I-309 binding to CCR8, L1.2/hCCR8 cells, biotinylated human I-309, 10 point concentration response starting at 10 μM. The method in brief:
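Ten-point dilutions, top 10 μM final, were tested for displacing biotin-I309 from hCCR8-transfected L1.2 cells in HEPES-buffered HBSS with BSA and sodium azide, mixing 0.5 h before FMAT 8100 detection. Signals converted to percent inhibition against untreated wells and a 100 nM excess unlabeled I309 control.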
`CCCC(=O)N1CCC(NS(=O)(=O)c2ccc(NC(=O)c3ccccc3C)c3ccccc23)CC1` [Compound C-35, N-[4-(1-Butyryl-piperidin-4-ylsulfamoyl)-naphthalen-1-yl]-2-methyl-benzamide] yielded a Ki below 0.5 µM.

As for `CCOC(=O)N1CCC(NS(=O)(=O)c2ccc(NC(=O)N3CCCCC3)c3ccccc23)CC1` [Compound B-14, 4-{4-[(Piperidine-1-carbonyl)-amino]-naphthalene-1-sulfonylamino}-piperidine-1-carboxylic acid ethyl ester], the Ki was below 0.5 µM.

In the case of `Cc1ccccc1C(=O)Nc1ccc(S(=O)(=O)NC2CCN(C(=N)N3CCCC3)CC2)c2ccccc12` [Compound C-40, N-{4-[1-(Imino-pyrrolidin-1-yl-methyl)-piperidin-4-ylsulfamoyl]-naphthalen-1-yl}-2-methyl-benzamide], the Ki is below 0.5 µM.

Turning to `CCCNC(=O)N1CCC(NS(=O)(=O)c2ccc(NC(=O)c3ccccc3C)c3ccccc23)CC1` [Compound C-45, 4-[4-(2-Methyl-benzoylamino)-naphthalene-1-sulfonylamino]-piperidine-1-carboxylic acid propylamide], the Ki is below 0.5 µM.

Compound `Cc1ccccc1C(=O)Nc1ccc(S(=O)(=O)NC2CCN(C(=O)CO)CC2)c2ccccc12` [Compound C-121, N-{4-[1-(2—Hydroxy-acetyl)-piperidin-4-ylsuffamoyl]-naphthalen-1-yl}-2-methyl-benzamide] returned a Ki below 0.5 µM.

As for `CCCC(=O)N1CCC(NS(=O)(=O)c2ccc(NC(=O)C3CCCC3)c3ccccc23)CC1` [Compound D-18, Cyclopentanecarboxylic acid [4-(1-butyryl-piperidin-4-ylsulfamoyl)-naphthalen-1-yl]-amide], the Ki was below 0.5 µM.

The compound `COc1ccc(NS(=O)(=O)c2ccc(N(C)C(=O)c3ccccc3)c3ccccc23)cc1` [Compound B-33, N-[4-(4-Methoxy-phenylsulfamoyl)-naphthalen-1-yl]-N-methyl-benzamide] yielded an inhibition constant Ki below 30 µM.

As for `Cc1ccccc1C(=O)Nc1ccc(S(=O)(=O)NC2CCN(C(=O)N3CCOCC3)CC2)c2ccccc12` [Compound C-33, 2-Methyl-N-{4-[1-(morpholine-4-carbonyl)-piperidin-4-ylsulfamoyl]-naphthalen-1-yl}-benzamide], the Ki is below 1 µM.

Staying with this test, now noted: L1.2/hCCR8 cells, biotinylated human I-309, 10 point concentration response starting at 10 μM; read-out: Ki of compounds to inhibit I-309 binding to CCR8.
With `COc1cccc(NS(=O)(=O)c2ccc(NC(=O)c3ccccc3)c3ccccc23)c1` [Compound A-1, N-[4-(3-Methoxy-phenylsulfamoyl)-naphthalen-1-yl]-benzamide], the Ki is below 0.5 µM.

Take `CCOC(=O)N1CCC(NS(=O)(=O)c2ccc(NC(=O)c3cccnc3C)c3ccccc23)CC1` [Compound B-24]: the Ki is below 0.5 µM.

For `CC(C)(C)OC(=O)N1CCC(NS(=O)(=O)c2ccc(NC(=O)c3ccccc3F)c3ccccc23)CC1` [Compound B-15, 4-[4-(2-Fluoro-benzoylamino)-naphthalene-1-sulfonylamino]-piperidine-1-carboxylic acid tert-butyl ester], the Ki was below 0.5 µM.

On to `CCOC(=O)N1CCC(NS(=O)(=O)c2ccc(CNC(=O)c3ccccc3C)c3ccccc23)CC1` [Compound G-1, 4-{4-[(2-Methyl-benzoylamino)-methyl]-naphthalene-1-sulfonylamino}-piperidine-1-carboxylic acid ethyl ester], for which the Ki is below 0.5 µM.

As to `Cc1ccccc1C(=O)Nc1ccc(S(=O)(=O)NC2CCN(C(=O)CN(C)C)CC2)c2c1CCCC2` [Compound E-17, N-{4-[1-(2-Dimethylandno-acetl)-piperidin-4-ylsulfamoyl]-5,6,7,8-tetrahydro-naphthalen-1-yl}-2-methyl-benzamide], the Ki is below 0.5 µM.

Consider `CCOC(=O)N1CCC(NS(=O)(=O)c2ccc(CNCc3ccco3)c3ccccc23)CC1` [Compound G-13, 4-(4-{[(Furan-2-ylmethyl)-amino]-methyl}-naphthalene-1-sulfonylamino)-piperidine-1-carboxylic acid ethyl ester], for which the Ki was below 0.5 µM.

In the case of `Cc1ccccc1C(=O)Nc1ccc(S(=O)(=O)NC2CCN(Cc3ccccc3)CC2(C)C)c2ccccc12` (racemic) [Compound A-24, (±)-N-[4-(1-Benzyl-3,3-dimethyl-piperidin-4-ylsulfamoyl)-naphthalen-1-yl]-2-methyl-benzamide], the Ki was below 0.5 µM.

Regarding `Cc1ccccc1C(=O)Nc1ccc(S(=O)(=O)N[C@H]2CCN(C(=O)[C@H](C)N)C[C@@H]2C)c2ccccc12` [Compound J-2, (3S, 4S)-N-{4-[1-(2-(S)-Amino-propionyl)-3-methyl-piperidin-4-ylsulfamoyl]-naphthalen-1-yl}-2-methyl-benzamide], the Ki was below 0.5 µM.

On to `COc1ccc(NS(=O)(=O)c2ccc(NC(=O)c3ccncc3)c3ccccc23)cc1` [Compound B-8, N-[4-(4-Methoxy-phenylsulfamoyl)-naphthalen-1-yl]-isonicotinamide], for which the Ki is below 1 µM.

Take `CCOC(=O)N1CCC(NS(=O)(=O)c2ccc(NC(=O)c3ccccc3C)c3ccccc23)C(C)(C)C1` (racemic) [Compound C-20, (±)-3,3-Dimethyl-4-[4-(2-methyl-benzoylamino)-naphthalene-1-sulfonylamino]-piperidine-1-carboxylic acid ethyl ester]: the Ki is below 0.5 µM.

`CCOC(=O)N1CCC(NS(=O)(=O)c2cc3c(c(NC(=O)c4ccccc4)c2)CCCC3)CC1` [Compound H-56, 4-(4-Benzoylamino-5,6,7,8-tetrahydro-naphthalene-2-sulfonylamino)-piperidine-1-carboxylic acid ethyl ester]: the Ki is below 0.5 µM.

For the compound `CCc1ccc(NS(=O)(=O)c2ccc(NC(=O)c3ccccc3)c3ccccc23)cc1` [Compound A-26, N-[4-(4-Ethyl-phenylsulfamoyl)-naphthalen-1-yl]-benzamide], the Ki was below 0.5 µM.

With `CCOC(=O)N1CCC(NS(=O)(=O)c2ccc(CNC3CCN(C)CC3)c3ccccc23)CC1` [Compound G-25, 4-{4-[(1-Methyl-piperidin-4-ylamino)-methyl]-naphthalene-1-sulfonylamino}-piperidine-1-carboxylic acid ethyl ester], the Ki is below 30 µM.

For the compound `CCOC(=O)N1CCC(NS(=O)(=O)c2cccc3c(C(=O)Nc4ccccc4C)cccc23)CC1` [Compound H-28, 4-(5-o-Tolylcarbamoyl-naphthalene-1-sulfonylamino)-piperidine-1-carboxylic acid ethyl ester], the Ki is below 0.5 µM.

Regarding `Cc1ccccc1C(=O)Nc1ccc(S(=O)(=O)NC2(C)CCN(C(=O)OC(C)C)CC2)c2ccccc12` [Compound C-26, 4-Methyl-4-[4-(2-methyl-benzoylaminno)-naphthalene-1-sulfonylamino]-piperidine-1-carboxylic acid isopropyl ester], the Ki is below 0.5 µM.

As to `O=C(Nc1cccc2ccc(S(=O)(=O)Nc3ccc(F)cc3)cc12)c1ccccc1` [Compound H-48, N-[7-(4-Fluoro-phenylsulfamoyl)-naphthalen-1-yl]-benzamide], the Ki is below 30 µM.

In the case of `CCCC(=O)N1CC[C@@H](NS(=O)(=O)c2ccc(NC(=O)c3ccccc3C)c3ccccc23)[C@@H](C)C1` (single isomer, unassigned) [Compound C-141, cis-N-[4-(1-butyryl-3-methyl-piperidin-4-ylsuffamoyl)-naphthalen-1-yl]-2-methyl-benzamide], the Ki was below 1 µM.

In the case of `CCOC(=O)N1CCC(NS(=O)(=O)c2cccc3c(C(=O)NC4CCCCC4C)cccc23)CC1` (racemic) [Compound H-24, (±)-4-[5-(2-Methyl-cyclohexylcarbamoyl)-naphthalene-1-sulfonylamino]-piperidine-1-carboxylic acid ethyl ester], the Ki was below 0.5 µM.

Take `COc1ccc(NS(=O)(=O)c2ccc(NC(=O)Nc3ccccc3)c3ccccc23)cc1` [Compound B-10, 4-(3-Phenyl-ureido)-naphthalene-1-sulfonic acid (4-methoxy-phenyl)-amide]: the Ki is below 30 µM.

`CCOC(=O)N1CCC(NS(=O)(=O)c2cccc3c(C(=O)NC4CCCC(C)C4C)cccc23)CC1` (racemic) [Compound H-30, (±)-4-[5-(2,3-Dimethyl-cyclohexylcarbamoyl)-naphthalene-1-sulfonylamino]-piperidine-1-carboxylic acid ethyl ester]: the Ki is below 0.5 µM.

Turning to `Cc1ccccc1C(=O)Nc1ccc(S(=O)(=O)N[C@H]2CCN(C(=O)OC(C)C)C[C@H]2C)c2ccccc12` (racemic) [Compound C-13, (±)-cis-3-Methyl-4-[4-(2-methyl-benzoylamino)-naphthalene-1-sulfonylamino]-piperidine-1-carboxylic acid isopropyl ester], the Ki is below 0.5 µM.

On to `Cc1ccccc1C(=O)Nc1ccc(S(=O)(=O)NC2CCN(C(=O)[C@H](C)N)CC2)c2ccccc12` [Compound C-120, (S)-N-{4-[1-(2-Amino-propionyl)-piperidin-4-ylsulfamoyl]-naphthalen-1-yl}-2-methyl-benzamide], for which the inhibition constant Ki was below 0.5 µM.

With `O=C(Nc1ccc(S(=O)(=O)Nc2cccnc2)c2ccccc12)c1ccccc1` [Compound A-16, N-[4-(Pyridin-3-ylsulfamoyl)-naphthalen-1-yl]-benzamide], the Ki was below 30 µM.

For the compound `CCOC(=O)N1CCC(NS(=O)(=O)c2cc3c(c(NC(=O)c4ccccc4C)c2)CCCC3)CC1` [Compound H-59, 4-[4-(2-Methyl-benzoylamino)-5,6,7,8-tetrahydro-naphthalene-2-sulfonylamino]-piperidine-1-carboxylic acid ethyl ester], the inhibitory constant (Ki) was below 1 µM.

On to `CCOC(=O)N1CCC(NS(=O)(=O)c2ccc(CNCc3ccoc3)c3ccccc23)CC1` [Compound G-14, 4-(4-{[(Furan-3-ylmethyl)-amino]-methyl}-naphthalene-1-sulfonylamino)-piperidine-1-carboxylic acid ethyl ester], for which the Ki is below 0.5 µM.

These data come from patent publication US7491827B2, “Aryl sulfonamides useful as inhibitors of chemokine receptor activity” (Millennium Pharmaceuticals, Inc., priority 2003, dated 2009).
